Assay [1] deals with T1, DFsc (2A3H-DFsc), [DFsc-Zn(II)2] (synthetic construct, UniProt Z9QLD2D1S0, H107N).
T1 sequence (Z9QLD2D1S0 1-115 H107N): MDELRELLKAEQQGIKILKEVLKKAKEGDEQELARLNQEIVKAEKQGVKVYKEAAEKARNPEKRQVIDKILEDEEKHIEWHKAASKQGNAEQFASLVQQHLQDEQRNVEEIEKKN
Briefly: UV/vis. It is filed as binding. Conditions: Zn(II)-bound form; bound as semiquinone derived from 4-t-butylcatechol.

The target in assay [2] is T2, DFsc (2A3H-DFsc), [DFsc-Zn(II)2] (synthetic construct, UniProt Z9QLD2D1S0, H107A).
T2 sequence (Z9QLD2D1S0 1-115 H107A): T1 sequence (Z9QLD2D1S0 1-115 H107N) with N107A
Briefly: UV/vis. The settings on record: Zn(II)-bound form; bound as semiquinone derived from 4-t-butylcatechol. It is filed as binding.

This note sets out measurements from publication PMC4857601 (Nature chemistry, 2016).

Substitutions are numbered along the chain they refer to.

`CC(C)(C)c1ccc(O)c(O)c1`: the UV/vis entry in assay [1] and in assay [2] was “The variants also form a 4-t-butylcatechol-derived SQ• complex” each time.
